Source: patent publication US5187155A, “Anticoagulant peptides” (Board of Regents, The University of Texas System, priority 1989, dated 1993)
Values joined by “and” are separate entries in the source; they are usually repeats but may differ in a detail not shown here. Equal values may be shown once. Where a SMILES comes first, the peptide text is derived from it. Where no end group is shown, it is not given here.

Assays:
[1] = target: T1, Factor Xa:Factor Va complex (Homo sapiens, UniProt P12259); assay: Rate of thrombin formation (prothrombin activation by Factor Xa), chromogenic assay; format: biochemical; conditions: for Thrombin Formation (% of Control Rate): 200 μM final concentration of peptide
T1 sequence (P12259 29-737 limits assumed): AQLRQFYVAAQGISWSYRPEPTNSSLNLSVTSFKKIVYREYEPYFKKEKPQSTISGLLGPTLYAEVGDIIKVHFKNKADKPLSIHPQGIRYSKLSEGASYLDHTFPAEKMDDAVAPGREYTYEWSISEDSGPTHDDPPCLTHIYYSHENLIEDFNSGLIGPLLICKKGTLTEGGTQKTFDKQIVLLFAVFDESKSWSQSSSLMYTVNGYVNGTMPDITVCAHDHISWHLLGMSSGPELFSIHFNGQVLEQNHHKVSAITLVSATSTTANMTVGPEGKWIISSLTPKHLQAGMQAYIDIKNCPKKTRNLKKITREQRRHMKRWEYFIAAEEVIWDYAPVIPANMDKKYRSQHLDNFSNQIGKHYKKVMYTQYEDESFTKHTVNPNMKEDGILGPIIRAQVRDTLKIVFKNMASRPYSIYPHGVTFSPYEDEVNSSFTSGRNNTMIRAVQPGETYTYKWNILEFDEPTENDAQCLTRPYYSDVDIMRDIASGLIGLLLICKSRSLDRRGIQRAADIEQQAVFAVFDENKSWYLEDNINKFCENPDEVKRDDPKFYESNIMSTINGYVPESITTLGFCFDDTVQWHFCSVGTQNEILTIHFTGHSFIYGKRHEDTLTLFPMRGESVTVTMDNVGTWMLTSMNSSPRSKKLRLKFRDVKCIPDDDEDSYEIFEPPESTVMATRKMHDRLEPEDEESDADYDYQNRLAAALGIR
T1 sequence (P12259 1574-2224 limits assumed): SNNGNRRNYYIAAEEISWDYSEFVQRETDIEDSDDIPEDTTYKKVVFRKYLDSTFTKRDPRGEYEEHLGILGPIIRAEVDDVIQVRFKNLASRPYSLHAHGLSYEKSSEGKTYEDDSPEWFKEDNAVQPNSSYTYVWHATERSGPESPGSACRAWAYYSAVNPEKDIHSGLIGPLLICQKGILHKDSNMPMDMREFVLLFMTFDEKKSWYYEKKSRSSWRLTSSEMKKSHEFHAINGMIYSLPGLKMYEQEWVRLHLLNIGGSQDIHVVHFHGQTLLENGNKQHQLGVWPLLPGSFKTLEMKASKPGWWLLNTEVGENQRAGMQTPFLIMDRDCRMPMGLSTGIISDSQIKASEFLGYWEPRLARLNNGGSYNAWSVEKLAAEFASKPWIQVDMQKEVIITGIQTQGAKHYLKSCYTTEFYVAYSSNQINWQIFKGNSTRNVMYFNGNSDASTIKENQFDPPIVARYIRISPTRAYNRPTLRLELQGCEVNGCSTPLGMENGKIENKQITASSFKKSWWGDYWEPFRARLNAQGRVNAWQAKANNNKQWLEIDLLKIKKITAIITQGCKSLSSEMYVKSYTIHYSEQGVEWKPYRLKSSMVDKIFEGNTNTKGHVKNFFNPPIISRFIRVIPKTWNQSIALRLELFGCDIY
Protocol: b. Rate of Thrombin Formation: The ability of the synthetic peptides to inhibit Factor Xa function was assessed by their capacity to impede the rate of thrombin formation using a purified system and employing a specific thrombin chromogenic substrate. To 10 ul of Factor V (1.5 nM) was added 10 ul of phospholipid vesicles (30 uM), 3.3 ul of CaCl2 (100 mM) and 57 ul of TBS-BSA or synthetic peptide. The mixture was incubated at 37 degrees Centigrade for 15 minutes, after which 20 ul of Factor Xa (12 pM) and prothrombin (0.35 uM) were added to initiate the reaction.
At defined time intervals from initiation of either reaction (a) or (b), 20 ul aliquots were removed and added to a microtiter plate containing 80 ul of 50 mM Tris-HCl, 225 mM NaCl, 10 mM EDTA, pH 8.2. […] The rate of Factor Xa or thrombin formation was calculated from the slope of linear regressions of data plotted as a function of the initial rate of hydrolysis (OD 405/min) versus time and expressed as OD 405/min/min.
Factor Xa associates with activated Factor Va on a phospholipid surface in the presence of calcium. A chromogenic assay was used to investigate the ability of the panel of synthetic peptides to inhibit the activation of prothrombin by Factor Xa. In preliminary experiments it was determined that similar results were obtained whether prothrombin was added before or after factor Xa and that the 15 minute incubation period was sufficient for the peptide-protein interactions to reach equilibrium. […] Seven peptides prevented thrombin formation by greater than 40% when compared to reactions containing buffer only. These peptides represented the amino acid sequences 211-222, 237-262, 254-269, 267-283, 284-303, 363-375, 417-431. Thus, a limited number of synthetic peptides representing the primary structure of Factor Xa could inhibit this reaction and these were analyzed further.

[2] = target: extrinsic activation complex (factor VIIa:tissue factor) (Homo sapiens, UniProt P08709+P13726); assay: Rate of Factor Xa formation by the extrinsic activation complex, kinetic chromogenic assay; format: biochemical; conditions: for Factor Xa Formation (% of Control Rate) Extrinsic: 1 mg/ml (0.29-1.1 mM) peptide, 30 min at 37 degrees preincubation
RVV-X = RVV-X (Daboia siamensis, UniProt Q4PRD1+Q4PRD2+Q7LZ61); assay: biochemical; set-up: species or system Russell's viper
[3] = target: T2, intrinsic activation complex (factor IXa:factor VIIIa) (Homo sapiens, UniProt P00451+P00740); assay: Rate of Factor Xa formation by the intrinsic activation complex, kinetic chromogenic assay; format: biochemical; conditions: for Factor Xa Formation (% of Control Rate) Intrinsic: 1 mg/ml (0.29-1.1 mM) peptide, 30 min at 37 degrees preincubation
T2 construct: Factor IXa was produced from contact product (14) and isolated as previously described (12); made in house; host or cells: Factor IXa produced from isolated Factor IX with contact product; Factor VIII was a gift from Rorer Biotechnology, Inc

[4] = tested on: Factor X coagulant activity, RVV-X pathway; assay: Two-stage clotting assay, RVV-X mediated activation of Factor X; set-up: species or system human
[5] = tested on: Factor X coagulant activity, extrinsic pathway; assay: Two-stage clotting assay, extrinsic activation of Factor X
Protocol: (§1) Coagulation Assays: The effect of the synthetic peptide and antibodies to them on Factor X coagulation activity was determined using two-stage clotting assays specific for Factor X activation by the intrinsic, extrinsic, and RVV-X activation enzyme complexes.
(§2) For determination of extrinsic activation of Factor X, 50 ul of bovine Factor VII/X deficient plasma was added 50 ul each of 1.5 nM Factor VII/VIIa, 1% tissue factor, 25 mM CaCl2, and peptide in TBS-BSA. Following incubation for 30 min at 37 degrees Centigrade, coagulation was initiated by the addition of 50 ul of 200 nM of Factor X, and the time for clot formation was measured. […] Factor X (50 ul of 105 nM) was added to initiate the reaction and the time for clot formation measured. […] Factor X and Xa activity was measured by the addition of 50 ul of 25 nM Factor X and the time for clot formation determined. […]
(§3) Analogous determinations of the CI50 values were measured in each of the specific coagulation assays outlined above. Factor X/Xa activity in the presence of varying concentrations of peptide was measured by comparing the clotting times to a standard curve constructed from the log of the clot time versus the log of Factor X concentration in the same incubation mixtures lacking peptides. […]

[6] = tested on: Factor X coagulant activity, intrinsic pathway; assay: Two-stage clotting assay, intrinsic activation of Factor X
Protocol: as §1, §2, §3

[7] = 267-283 at 6 uM, 284-303 at 60 uM, 417-431 at 600 uM, alone or mixed

Chain of extrinsic activation complex (factor VIIa:tissue factor) (P08709 61-212 limits assumed): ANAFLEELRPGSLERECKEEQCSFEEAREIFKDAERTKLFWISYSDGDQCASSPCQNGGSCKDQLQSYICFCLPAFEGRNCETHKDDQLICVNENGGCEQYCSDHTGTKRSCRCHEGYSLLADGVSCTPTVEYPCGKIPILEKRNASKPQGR
Chain of extrinsic activation complex (factor VIIa:tissue factor) (P08709 213-466 limits assumed): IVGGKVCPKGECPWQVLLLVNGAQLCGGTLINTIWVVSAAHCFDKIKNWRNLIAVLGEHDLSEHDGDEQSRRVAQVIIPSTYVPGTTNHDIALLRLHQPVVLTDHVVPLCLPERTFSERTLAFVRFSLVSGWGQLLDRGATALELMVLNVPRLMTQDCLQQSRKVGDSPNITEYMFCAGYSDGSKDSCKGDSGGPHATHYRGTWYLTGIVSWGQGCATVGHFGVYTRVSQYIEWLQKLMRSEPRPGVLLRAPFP
Chain of extrinsic activation complex (factor VIIa:tissue factor) (P13726 33-295): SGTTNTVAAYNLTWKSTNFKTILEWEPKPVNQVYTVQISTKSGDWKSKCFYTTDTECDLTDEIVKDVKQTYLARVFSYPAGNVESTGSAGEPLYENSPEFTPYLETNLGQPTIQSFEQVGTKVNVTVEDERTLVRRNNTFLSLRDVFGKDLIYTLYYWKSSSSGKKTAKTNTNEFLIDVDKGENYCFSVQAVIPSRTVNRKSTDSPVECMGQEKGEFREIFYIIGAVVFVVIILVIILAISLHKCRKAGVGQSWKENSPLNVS
T2 sequence (P00740 47-191 limits assumed): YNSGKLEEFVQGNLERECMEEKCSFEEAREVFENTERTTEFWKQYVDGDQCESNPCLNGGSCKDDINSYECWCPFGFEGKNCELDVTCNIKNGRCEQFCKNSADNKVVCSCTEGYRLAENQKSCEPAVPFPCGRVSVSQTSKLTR
T2 sequence (P00740 227-461 limits assumed): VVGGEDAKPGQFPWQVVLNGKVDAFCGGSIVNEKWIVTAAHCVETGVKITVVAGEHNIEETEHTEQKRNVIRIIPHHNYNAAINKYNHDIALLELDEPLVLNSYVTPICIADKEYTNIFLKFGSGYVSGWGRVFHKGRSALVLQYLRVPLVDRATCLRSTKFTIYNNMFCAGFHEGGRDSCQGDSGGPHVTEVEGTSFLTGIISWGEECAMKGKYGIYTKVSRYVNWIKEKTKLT
T2 sequence (P00451 20-391 limits assumed): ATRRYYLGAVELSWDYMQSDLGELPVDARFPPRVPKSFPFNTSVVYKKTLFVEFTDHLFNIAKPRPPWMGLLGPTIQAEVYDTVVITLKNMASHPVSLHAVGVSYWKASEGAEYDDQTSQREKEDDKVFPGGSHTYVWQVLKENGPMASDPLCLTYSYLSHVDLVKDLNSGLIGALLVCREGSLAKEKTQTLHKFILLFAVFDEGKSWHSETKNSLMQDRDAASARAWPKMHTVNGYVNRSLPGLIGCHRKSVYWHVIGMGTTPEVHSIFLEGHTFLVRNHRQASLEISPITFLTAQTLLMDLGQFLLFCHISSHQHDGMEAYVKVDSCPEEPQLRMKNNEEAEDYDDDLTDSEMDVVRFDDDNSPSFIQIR
T2 sequence (P00451 392-759 limits assumed): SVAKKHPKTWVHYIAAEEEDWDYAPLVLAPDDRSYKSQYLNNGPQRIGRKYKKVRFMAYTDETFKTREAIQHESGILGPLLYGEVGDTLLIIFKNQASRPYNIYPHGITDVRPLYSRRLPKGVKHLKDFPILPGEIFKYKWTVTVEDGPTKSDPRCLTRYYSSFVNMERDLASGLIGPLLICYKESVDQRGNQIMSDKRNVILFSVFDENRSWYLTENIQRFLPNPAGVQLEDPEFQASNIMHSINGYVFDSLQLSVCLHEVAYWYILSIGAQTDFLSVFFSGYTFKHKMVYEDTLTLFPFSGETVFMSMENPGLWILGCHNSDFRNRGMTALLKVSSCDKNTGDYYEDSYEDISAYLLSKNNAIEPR
T2 sequence (P00451 1709-2351 limits assumed): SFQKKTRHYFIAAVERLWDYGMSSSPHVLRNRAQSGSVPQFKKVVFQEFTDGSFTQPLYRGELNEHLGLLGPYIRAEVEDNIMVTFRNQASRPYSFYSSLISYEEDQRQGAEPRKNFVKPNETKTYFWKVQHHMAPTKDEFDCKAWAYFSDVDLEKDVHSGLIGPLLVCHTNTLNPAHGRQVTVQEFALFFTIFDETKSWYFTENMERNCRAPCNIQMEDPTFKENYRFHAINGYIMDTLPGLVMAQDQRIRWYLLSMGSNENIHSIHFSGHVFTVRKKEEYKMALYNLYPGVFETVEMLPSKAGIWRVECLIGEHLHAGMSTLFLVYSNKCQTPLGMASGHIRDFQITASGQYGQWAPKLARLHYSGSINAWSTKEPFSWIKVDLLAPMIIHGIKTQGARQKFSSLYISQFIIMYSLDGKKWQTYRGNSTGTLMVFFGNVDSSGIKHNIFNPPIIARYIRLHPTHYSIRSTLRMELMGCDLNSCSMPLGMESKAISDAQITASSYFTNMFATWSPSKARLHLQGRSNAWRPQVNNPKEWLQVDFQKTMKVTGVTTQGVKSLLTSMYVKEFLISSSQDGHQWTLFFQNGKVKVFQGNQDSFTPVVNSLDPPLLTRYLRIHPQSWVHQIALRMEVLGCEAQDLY

In the case of `C[C@H](NC(=O)[C@H](CC(=O)O)NC(=O)[C@H](CCC(=O)O)NC(=O)[C@H](CCC(N)=O)NC(=O)[C@H](CCCCN)NC(=O)[C@@H](NC(=O)[C@H](CC(=O)O)NC(=O)[C@H](Cc1ccc(O)cc1)NC(=O)CNC(=O)[C@H](C)NC(=O)[C@H](CS)NC(=O)[C@@H](N)Cc1ccccc1)[C@@H](C)O)C(=O)N[C@@H](CS)C(=O)O` [Peptide 363-375] (H-FCAGYDTKQEDAC-OH; N-terminus and C-terminus assumed), the “mode of inhibition of prothrombin activation” value ([1]; Dixon plots, varying prothrombin) is reported as “noncompetitive”.
TEQE*GGEAVHEVEVVIK [Peptide 253-270] was tested, and the “inhibition of the rate and extent of Factor X activation by the extrinsic activation complex” value ([2]; 400 uM peptide, Factor X 5.25-84 nM (FIG. 1)) was “approximately 20%”, the “Factor Xa Formation (% of Control Rate) Extrinsic” value [2] was 100 % of Control Rate and the “Factor Xa Formation (% of Control Rate) RVVX” value (RVV-X) was 71.
CARGYTLADNGKAC [Peptide 111-124] was tested, and the “Factor Xa Formation (% of Control Rate) Extrinsic” value [2] was 83 % of Control Rate, the “Factor Xa Formation (% of Control Rate) Intrinsic” value [3] was 121 % of Control Rate and the “Factor Xa Formation (% of Control Rate) RVVX” value (RVV-X) was 77. For the same compound, the “Thrombin Formation (% of Control Rate)” value [1] was 100 % of Control Rate.
With VVIKHNRFTKETYDFDI [Peptide 267-283] the inhibition at 400 µM ([2]; 400 uM peptide, Factor X 5.25-84 nM (FIG. 1), read-out: inhibition of the rate and extent of Factor X activation by the extrinsic activation complex) was at least 90%.
“LYQAKRF *EGDRNTEQEEGG(K) [Peptide 238-259 + K]” was tested, and the “Factor Xa Formation (% of Control Rate) Extrinsic” value [2] was 100 % of Control Rate, the “Factor Xa Formation (% of Control Rate) Intrinsic” value [3] was 71 % of Control Rate and the “Factor Xa Formation (% of Control Rate) RVVX” value (RVV-X) was 100. The “Thrombin Formation (% of Control Rate)” value [1] was 98 % of Control Rate.
In the case of AVLRLKTPITFRMNVAPACL [Peptide 284-303], the “Factor Xa Formation (% of Control Rate) Extrinsic” value [2] is reported as 19 % of Control Rate, the “Factor X Activation (% Control) Experiment #1 Observed” value [2, 7] is reported as 35.0 % Control and the “Factor X Activation (% Control) Experiment #2 Observed” value [2, 7] is reported as 47.8 % Control. For the same compound, the Ki ([2]; Dixon plots, mean ± SD for 4 to 5 determinations, read-out: Ki for Factor X Activation, Extrinsic) was 73.6 ± 7.79 µM, the IC50 ([2]; chromogenic assay, read-out: Concentration for 50% Inhibition, Rate of Factor Xa Formation, Extrinsic) was 78 µM and the “Factor Xa Formation (% of Control Rate) Intrinsic” value [3] was 0 % of Control Rate. The Ki ([3]; Dixon plots, mean ± SD for 4 to 5 determinations, read-out: Ki for Factor X Activation, Intrinsic) was 3.05 ± 1.77 µM, the IC50 ([3]; chromogenic assay, read-out: Concentration for 50% Inhibition, Rate of Factor Xa Formation, Intrinsic) was 1.7 µM and < 5 µM and the “Factor Xa Formation (% of Control Rate) RVVX” value (RVV-X) was 34. For the same compound, the IC50 (RVV-X; read-out: Concentration for 50% Inhibition, Rate of Factor Xa Formation, RVV.X) was 104 µM, the Ki (RVV-X; read-out: Ki for Factor X Activation, RVV-X) was 123 ± 23.9 µM and the “Thrombin Formation (% of Control Rate)” value [1] was 0 % of Control Rate. For the same compound, the “prevention of thrombin formation compared to buffer only” value ([1]; 200 uM of each peptide) was “greater than 40%”, the Ki ([1]; assays varying the substrate prothrombin, read-out: Ki for Factor Xa Function) was 16.2 ± 4.54 µM and the “inhibition of RVV-X pathway Factor X coagulant activity” value ([4]; clot formation assay) was “inhibited”. For the same compound, the IC50 ([4]; clotting assay, read-out: Concentration for 50% Inhibition, Coagulant Activity, RVV.X) was 14 µM, the “inhibition of extrinsic pathway-mediated Factor X coagulant activity” value ([5]; clot formation assay) was “less potent inhibitor” and the IC50 ([5]; read-out: Concentration for 50% Inhibition, Coagulant Activity, Extrinsic, clotting assay) was over 500 µM. The “inhibition of intrinsic pathway Factor X coagulant activity” value ([6]; clot formation assay) was “inhibited” and the IC50 ([6]; read-out: Concentration for 50% Inhibition, Coagulant Activity, Intrinsic, clotting assay) was 46 µM.
In the case of “IVGGQECKDGECPWQA(K) (C-terminal added Lys) [Peptide 195-210 + K]”, the “Factor Xa Formation (% of Control Rate) Extrinsic” value [2] is reported as 88 % of Control Rate, the “Factor Xa Formation (% of Control Rate) Intrinsic” value [3] is reported as 98 % of Control Rate and the “Factor Xa Formation (% of Control Rate) RVVX” value (RVV-X) is reported as 76. For the same compound, the “Thrombin Formation (% of Control Rate)” value [1] was 99 % of Control Rate.
